Experimental data as given in patent EP4566586A1, “SKIN-CARE PRODUCT COMPOSITION AND PHARMACEUTICAL COMPOSITION COMPRISING SULFONATED CALIXARENE, AND USE OF SULFONATED CALIXARENE” (Calix Biotechnology (Hangzhou) Co., Ltd, priority 2022, dated 2024).
In brackets after ≈: the same amount, converted by molar mass. Marks after values point to notes of the source that are not given here.

Tests used:
[1] = UV titration, binding constants between SC8A-12C and skincare active substances; conditions: 25°C, 1:1 host-guest direct binding model; for Binding constants Ka: host SC8A-12C, active substance 15 µM in deionized water
Protocol: (§1) Test Method: UV titration.
Test Equipment: A Japan Shimadzu UV-3600 UV-Visible Spectrophotometer, equipped with a temperature control module (model: PTC-348WI), was used. The samples were tested using Shimadzu's quartz cuvettes with an optical path length of 10 mm.
(§2) Reagents: Vitamin A (Va) was purchased from Shanghai Macklin Biochemical Technology Co., Ltd, retinoic acid was purchased from Heowns Biochem Technologies, LLC, Tianjin, and other skincare active substances were commercially available products.
(§3) Va was dissolved in methanol to a concentration of 2 mM. During the test, the Va stock solution was added to a cuvette and adjusted to a volume of 3 mL with deionized water, resulting in a concentration of 10 µM. […] The binding constant Kα for the host-guest inclusion was determined.
During the test, the retinoic acid stock solution was added to a cuvette and adjusted to a volume of 3 mL with deionized water, resulting in a concentration of 15 µM.
During the test, the stock solution of the active substance was added to a cuvette and adjusted to a volume of 3 mL with deionized water, resulting in a concentration of 15 µM. […] The UV titration data were fitted using a 1:1 host-guest direct binding model to determine the binding constant Kα for the host-guest inclusion.

[2] = Solubilization of Vitamin A by sulfonated calixarene (UV absorption); type: physicochemical
Protocol: Testing Method: UV Absorption Spectroscopy.
In 3 mL of deionized water, 5 mg (an excess amount) of Vitamin A was added, and the mixture was shaken overnight. The mixture was then centrifuged to collect the supernatant, and the UV Absorption Curve of the supernatant was measured (Figure 5).
Excess Va was added to each of these three solutions at a concentration of 5 mg/mL and shaken on a shaker to enhance the solubility of Va. After 24 hours, each group of solution was diluted 40-fold for UV absorption wavelength measurement. Meanwhile, Va was dissolved in methanol solution to prepare a 4 mM Va methanol stock solution. The Va methanol stock solution was then diluted in water to prepare a 5 µM Va standard solution with methanol as a solvent aid, which was used for UV absorption wavelength measurement.
An excess amount of Va was added to each of these solutions at 5 mg/mL, and the solutions were agitated on a shaking table to enhance the solubility of Va. After 24 hours, each group of solutions was diluted by an appropriate multiple (to fit the standard working curve described below) and used for the measurement of UV absorbance intensity.
A standard working curve for Va was prepared. A methanol solution containing 4 mM of Va was prepared. […] Subsequently, the UV absorbance intensities of these six groups of solutions with different concentrations of Va were measured, and a standard working curve was prepared.

[3] = UV titration, binding constants between SC8A-12C and skincare active substances; conditions: host SC8A-12C, active substance 15 µM in deionized water, 25°C, 1:1 host-guest direct binding model
Protocol: as §1, §2
as §3, with “The change in UV absorption intensity was recorded after each addition of the SC8A-12C stock solution. […] The” for “The”
SC8A-12C stock solution and retinoic acid stock solution were first prepared. […] During the test, the retinoic acid stock solution was added to a cuvette and adjusted to a volume of 3 mL with deionized water, resulting in a concentration of 15 µM. […] The change in UV absorption intensity was recorded after each addition of the SC8A-12C stock solution.
During the test, the stock solution of the active substance was added to a cuvette and adjusted to a volume of 3 mL with deionized water, resulting in a concentration of 15 µM. […] The change in UV absorption intensity was recorded after each addition of the SC8A-12C stock solution. […]

[4] = physchem; conditions: water
Protocol: Test Method: UV Absorption Spectroscopy.
The UV absorption intensities were measured, and a standard working curve was prepared. […] The mixtures were shaken overnight and then centrifuged to collect the supernatant for UV absorption curve detection.

[5] = Solubilization of Retinoic acid by sulfonated calixarene (UV absorption); type: physicochemical; conditions: 5 mg retinoic acid in 3 mL deionized water, shaken overnight, supernatant UV
Protocol: Testing Equipment: A Japan Shimadzu UV-3600 UV-Visible Spectrophotometer, equipped with a temperature control module (model: PTC-348WI), was used. The samples were tested using Shimadzu's quartz cuvettes with an optical path length of 10 mm.
Excess retinoic acid was added to each of the three groups of solutions at a concentration of 5 mg/mL, followed by ultrasonic treatment to enhance the solubility of retinoic acid. After 20 mins, each group of solution was diluted 10-fold for UV absorption wavelength measurement. At the same time, 5 mg (an excess amount) of retinoic acid was added to 3 mL of deionized water, the mixture was shaken overnight, centrifuged to obtain the supernatant. […] Retinoic acid was dissolved in methanol solution to prepare a stock solution of 4 mM retinoic acid in methanol. After 20 mins, the stock solution of retinoic acid in methanol was diluted in water to prepare a retinoic acid standard solution with an appropriate concentration, for UV absorption wavelength detection. […]
A standard working curve for retinoic acid was prepared. […] Subsequently, the UV absorbance intensities of these six groups of solutions with different concentrations of retinoic acid were measured, and a standard working curve was prepared.

[6] = Skin permeability test of retinoic acid (transdermal diffuser); type: in vitro ADME; conditions: ointment base (cream), retinoic acid 1% (w/w), pig skin, 37°C, 24 hours
Protocol: Testing Method: Skin Permeability Test
Testing Equipment: TP-6 Intelligent Transdermal Diffuser (Tianjin Jingtuo Instrument Technology Co., Ltd.)
Undamaged sections were cut into uniform thickness pieces, approximately 2 cm × 2 cm in size, wrapped in plastic wrap, and stored at -20°C for later use.
The concentration of retinoic acid in the inclusion complex was determined by UV detection, and subsequently diluted to 0.1% (w/w). Additionally, 3 mg of retinoic acid was weighed and mixed with 297 mg of cream in a mortar. The mixture was thoroughly ground to dissolve retinoic acid in the cream, resulting in a retinoic acid concentration of 1% (w/w).
The skin was placed between the diffusion and receptor compartments after thawing. The receptor compartment was filled with the receptor solution (deionized water), and all air bubbles were expelled. The receptor compartment was maintained at 37°C in a circulating water bath throughout the experiment. The transdermal diffuser was activated, with a magnetic stirring speed set at 300 r·min^-1. After 24 hours, the solutions from the receptor compartments of each group were collected for UV detection.

[7] = Stabilization of Va by SC8A-12C (UV-visible spectrophotometry); type: physicochemical; conditions: free Va, methanol as a solvent aid, stored for two days in the dark
Protocol: Testing Method: UV-Visible Spectrophotometry.
Va was dissolved in methanol to prepare a Va methanol solution with a concentration of 4 mM, which was then kept in the dark for two days. The UV absorptions of both the freshly prepared and the two-day stored Va methanol solutions were tested. During the testing, the Va methanol solution was first added to a cuvette, and deionized water was used to adjust the volume to 3 mL, achieving a final concentration of Va at 10 µM.

[8] = Skin permeability test of Va (transdermal diffuser); type: in vitro ADME; conditions: Va 0.4% (w/w), pig skin, 37°C, 55 hours
Protocol: Undamaged sections were cut into uniform thickness pieces approximately 2 cm × 2 cm in size, wrapped in plastic wrap, and stored at -20°C for later use. 0.8 mg of Va and 200 mg of skincare cream (ointment base) were weighed and added to a mortar. The mixture was thoroughly ground to dissolve Va in the skincare cream, resulting in a Va concentration of 0.4% (w/w). Subsequently, 0.8 mg of Va was weighed and dispersed in 200 µL of water by thoroughly shaking to prepare a suspension of Va (water base), with a Va concentration of 0.4% (w/w). […] The concentration of Va in the inclusion complex was also 0.4% (w/w). The skin was placed between the diffusion and receptor compartments after thawing. The receptor compartment was filled with the receptor solution (deionized water), and all air bubbles were expelled. The receptor compartment was maintained at 37°C in a circulating water bath throughout the experiment. The transdermal diffuser was activated, with a magnetic stirring speed set at 300 r·min^-1. After 55 hours, the solutions from the receptor compartments of each group were collected for UV detection.

Row | Molecule | Binding constants Ka [1] | also measured
1 | sphingolipids | 2.5±0.5×10^3 M^-1 | 
2 | ceramides | 6.5±0.2×10^3 M^-1 | 
3 | Cn1c(=O)c2c(ncn2C)n(C)c1=O [caffeine] | 3.2±0.8×10^3 M^-1 | 
4 | CCCCCCOC(=O)c1ccccc1C(=O)c1ccc(N(CC)CC)cc1O [diethylamino hydroxybenzoyl hexyl benzoate] | 3.8±0.3×10^3 M^-1 | 
5 | Nc1ccc(C(=O)OCC(O)CO)cc1 (stereo not shown) [glyceryl p-aminobenzoate] | 2.9±0.2×10^3 M^-1 | 
6 | OC[C@H]1O[C@@H](Oc2ccc(O)cc2)[C@H](O)[C@@H](O)[C@@H]1O [arbutin] | 4.3±0.5×10^3 M^-1 | 
7 | O=C1O[C@H]([C@@H](O)CO)C(O)=C1O[C@H]1O[C@H](CO)[C@@H](O)[C@H](O)[C@H]1O [ascorbyl glucoside] | 5.2±0.3×10^3 M^-1 | 
8 | proanthocyanidins | 2.6±0.3×10^3 M^-1 | 
9 | CC(C)CCC[C@@H](C)[C@H]1CC[C@H]2[C@@H]3CC=C4C[C@@H](O)CC[C@]4(C)[C@H]3CC[C@]12C [cholesterol] | 2.3±0.5×10^5 M^-1 | 
10 | OC[C@@H](O)[C@@H](O)[C@H](O)[C@@H](O)CO [sorbitol] | 5.3±0.4×10^3 M^-1 | 
11 | O=S(=O)(O)c1cc2c(O)c(c1)Cc1cc(S(=O)(=O)O)cc(c1O)Cc1cc(S(=O)(=O)O)cc(c1O)Cc1cc(S(=O)(=O)O)cc(c1O)Cc1cc(S(=O)(=O)O)cc(c1O)Cc1cc(S(=O)(=O)O)cc(c1O)Cc1cc(S(=O)(=O)O)cc(c1O)Cc1cc(S(=O)(=O)O)cc(c1O)C2 [SC8A, Sulfonated calix[8]arene] |  | solubilization of Va [2]: failed to solubilize Va
12 | palmitoyl tripeptide-5 |  | Binding constants Ka [3]: 6.3±0.6×10^3 M^-1
13 | O=S(=O)(O)c1cc2c(O)c(c1)Cc1cc(S(=O)(=O)O)cc(c1O)Cc1cc(S(=O)(=O)O)cc(c1O)Cc1cc(S(=O)(=O)O)cc(c1O)C2 [SC4A, Sulfonated calix[4]arene] |  | solubilization of Va [2]: failed to solubilize Va
14 | vitamin E | 2.6±0.4×10^3 M^-1 | 
15 | cocamidopropyl betaine | 0.8±0.1×10^4 M^-1 | 
16 | CC(c1ccccc1)c1ccc(O)cc1O (stereo not shown) [phenylethyl resorcinol] |  | solubility [4]: 4900 µg/mL (≈ 22.9 mM)
17 | CC1=C(/C=C/C(C)=C/C=C/C(C)=C/C(=O)O)C(C)(C)CCC1 [retinoic acid] |  | solubility of retinoic acid in water [5]: hardly soluble; retinoic acid in the receptor compartment (UV absorption peak) [6]: no absorption peak of retinoic acid was detected
18 | α-bisabolol | 2.8±0.6×10^4 M^-1 | 
19 | CCCCCCCCCCO[C@@H]1O[C@H](CO)[C@@H](O)[C@H](O)[C@H]1O [decyl glucoside] | 3.3±0.5×10^4 M^-1 | 
20 | vitamin A | 4.4±0.5×10^5 M^-1 | binding constant Kα of SC8A-12C ([1]; guest Va 10 µM (317 nm) or retinoic acid 15 µM): (4.0 ± 0.5) ×10^5 M^-1; solubility of Va in water ([2]; 5 mg Va in 3 mL deionized water, shaken overnight, supernatant UV): almost insoluble; [dissolved Va] ([2]; [SC8A-12C] 0 µM, Not detected under UV): 0* µM; UV absorption of the Va aqueous solution after storage [7]: significantly decreased; Va in the receptor compartment ([8]; ointment base): no Va was detected; permeability of Va ([8]; water base (suspension)): not good enough
21 | O=C(O)CCCCCCCC(=O)O [azelaic acid] | 5.2±0.1×10^3 M^-1 | 
